# Reference: patent US11638424B2, “Mosquito attractant formulations and uses thereof” (priority 2017, dated 2023)
# Legend:
# [1] = system: A. gambiae sensu lato; assay: Dual choice attraction bioassay (Y-tube olfactometer); assay type: in vivo; conditions: FIG. 1A
# Description: Mosquitoes used in this study were from the laboratory colony of A. gambiae sensu lato (Keele line, University of Glasgow), which was produced by balanced interbreeding of four A. gambiae s.s. strains (H. Hurd, et al. Evolution, 59, 2560-2572 (2005)). Larvae were reared under standard insectary conditions (27±1° C., 70% humidity, 12 h light: 12 h dark cycle) and fed on TetraMin fish flakes (Tetra ltd., Germany). Pupae were transferred into holding cages for emergence. Emerged adults were fed ad libitum on 5% glucose solution, supplemented with 0.05% (w/v) 4-aminobenzoic acid (PABA, Sigma-Aldrich), through soaked filters on top of the 2 ml tubes and with soaked filter pads inside cages. Red blood cells (RBCs) were washed with Roswell Park Memorial Institute (RPMI) medium and stored in RPMI at 50% haematocrit at 4° C. until use. To measure the effect of HMBPP on mosquito fitness, RBCs stored in RPMI were centrifuged at 2500×g for 5 min followed by replacement of the medium with AB serum for a final haematocrit of 40%. HMBPP (stock concentration at 4 mM in Nanopure water, stored at −80° C.) was diluted to 10 μM in 1 ml RBC suspension, and the corresponding volume of Nanopure water was added to the control RBCs. All experiments were, unless otherwise stated, conducted on 5-7 days post-emergence female mosquitoes maintained in separated cages (approximately 210 individuals per cohort) and fed RBCs either with or without HMBPP for 30 min. All experiments were performed in triplicates.
# Initial experiments were performed using a Y-tube olfactometer (length of the central cylinder and two arms: 25/15/15 cm respectively, inner diameter: 5 cm; see FIG. 1a). For each experiment, 180 female mosquitoes were individually placed in a release chamber and flown one by one. Females flew towards the upwind end (airflow 3 L min^−1) and entered one of two trapping chambers through which odour released from nearby membrane feeders passed (5 cm distance to each trapping chamber). Three experiments were conducted. In the first experiment, the membrane feeders were loaded with RBCs with or without HMBPP, while in the second they were loaded with serum with or without HMBPP. The third experiment was performed with a 5% glucose with 0.05% PABA solution with or without HMBPP. To control for possible spatial effects, the location of treatment at each olfactometer arm was switched every 30 minutes (˜15 mosquitoes flied one by one in each 30 minutes). Each replacement (feeder rotation with fresh RBCs) was counted as an experimental replicate (experimental block). Mosquitoes reaching any of the trapping chambers were considered to have made a choice. Each experiment was repeated six times with in total 180 mosquitoes per treatment.
# [2] = system: Plasmodium falciparum (NF54 strain); assay: Mosquito infectious feed (P. falciparum oocyst and sporozoite infection in mosquitoes); assay type: in vivo
# Description: A strain of the human malaria parasite P. falciparum, denoted NF54 (T. Ponnudurai, et al., Trop Geogr Med, 33, 50-54 (1981); kindly donated by Klays Berzins, Stockholm University), known to produce gametocytes infectious to mosquitoes (D. Walliker, paper presented at the Symposia on Molecular and Cellular Biology New Series 42, UCLA (1987)), was used for all experimental infections. Parasites were cultured in vitro according to standard protocols (W. Trager and J. B. Jensen, Science, 193, 673-675 (1976)) at 5% haematocrit in complete RPMI-1640 medium with 10% human serum under a gas environment of 1% O2, 3% CO2 and 96% N2 (Labline, Goteborg, Sweden). The culture medium was replaced daily and parasitaemia assessed using Giemsa staining every two days (ibid.). When the parasitaemia reached ˜6% (approximately 2 days after initiating the culture), cultures were diluted with a freshly made 5% haematocrit mixture of RBCs/complete medium. Asexual, synchronised trophozoites were fed to mosquitoes at 5% parasitaemia.
# Plasmodium falciparum gametocyte cultures (NF54 strain) were set up at 0.5-0.7% parasitaemia, 6% haematocrit in complete RPMI medium, according to standard procedures (R. Carter, et al. Methods Mol Biol, 21, 67-88 (1993)). For each infectious feeding, a mixture of gametocytes from 14- and 17-day gametocyte cultures were used (ibid.). On the day of experimental infection, uninfected RBCs were supplemented with P. falciparum gametocytes to a final gametocytaemia of approximately 3%, which is known to generate good infection prevalence (>50% in A. gambiae s.s. mosquitoes; ibid.). To measure the effect of HMBPP on parasite infectiousness, two groups of approximately 210 mosquitoes were fed on mature gametocyte-infected red blood cells (giRBCs) with or without HMBPP using a membrane feeder, as previously described (ibid.). Gametocyte density was kept equal in control and treatments. To give the final gametocytaemia of 3% in each tubes, on the day of feed, the final mature gametocytaemia was calculated in cultures and then the volume of gametocyte inoculum was estimated per 1 ml of blood. The gametocyte inoculum was prepared using an equal volume (˜400 μl) of the gametocyte mixture was added to 1 ml of each of the blood treatments (with/without HMBPP). Adding a fixed volume of well-mixed gametocyte culture to a fixed volume of each blood treatment, it was ensured that parasite density (no. gametocytes per ml) was constant in both groups.
compound,measurement,setting,value
"C/C(=C\COP(=O)(O)OP(=O)(O)O)CO [HMBPP, (E)-4-hydroxy-3-methyl-but-2-enyl pyrophosphate]",host-seeking mosquitoes that chose HMBPP-supplemented RBCs (hRBCs) over RBCs,[1]; RBCs with 10 μM HMBPP vs RBCs,95%
same,attraction to HMBPP-supplemented glucose solution,"[1]; glucose solution (5%) containing PABA 0.05%, with vs without HMBPP","did not, however, increase attraction"
same,attraction to HMBPP-supplemented serum,[1]; serum with vs without HMBPP,"did not, however, increase attraction"
same,oocyst prevalence (proportion of oocyst-carrying mosquitoes),"[2]; giRBCs with additional HMBPP, gametocyte density 3%",~100%
same,sporozoite intensity (number of sporozoites per salivary gland),[2]; giRBCs with vs without HMBPP,significantly higher
same,oocyst intensity (number of oocyst per midgut),"[2]; giRBCs with vs without HMBPP, 10 dpi, FIG. 3D",higher
same,sporozoite prevalence (proportion of sporozoite-carrying mosquitoes),"[2]; giRBCs with vs without HMBPP, 14 dpi, FIG. 3E",significantly higher
same,"oocyst prevalence, difference between treatments",[2]; giRBCs with vs without additional HMBPP,not significantly different
